Laboratory results: patent US4354039A, “Chlorocitric acids” (Hoffmann-La Roche Inc., priority 1981, dated 1982)
Structures can show the parent of a compound that is named as a salt. Where two headings read alike, the source gives them in different places.

Columns and labels:
[1] = Effect of stereoisomers on food consumption of meal-fed rats (Example 14); assay type: in vivo, Charles River female rats
Experimental: Animals were fasted 48 hr, then meal-fed the 70% glucose diet described by A. C. […] Following 5 to 12 days alimentation on the meal-feeding regimen, rats were dosed with the appropriate compounds orally by intubation 1/2 hr before the 3 hr meal. Food cups were weighed immediately after the meal. The control group consisted of 5 to 10 rats, while the experimental group consisted of 4 to 6 rats.

[2] = Effect on stomach emptying, [14C] glucose load (Example 25); assay type: in vivo, Rats; conditions: for Serum, % of control / Stomach Contents, % of control: 0.33 mmoles/kg oral, 60 min after [14C] glucose load
Experimental: Rats were trained to consume a 3 hr 70% glucose meal from 8 a.m. to 11 a.m. daily. On the experimental day, compounds were administered orally by intubation 30 min before a [^14 C] glucose load was given also by intubation. […] Sixty minutes later the rats were killed by decapitation; blood and stomachs were collected on ice.
Data are expressed as follows: dpm×10^3 per ml of serum and dpm×10^3 per stomach.

[3] = Anorectic activities of stereoisomers, 3-day food consumption and body weight gain (Example 16); assay type: in vivo, Charles River female rats; conditions: 1.32 mmoles/kg oral, 3 days
Experimental: Charles River female rats (Charles River Breeding Laboratories, Wilmington, Mass.), weighing 196 to 210 g, were individually housed in wire-bottomed cages in a temperature-regulated (22° C.) light-controlled room (12 hr light, 6 a.m. to 6 p.m. and 12 hr dark, 6 p.m. to 6 a.m.). Animals were fasted 48 hr, then meal-fed a 70% glucose diet from 8 to 11 a.m. Following 5 to 12 days alimentation on the meal-feeding regimen, rats were dosed with the appropriate compounds orally by intubation 1/2 hr before the 3 hr meal for 3 days. The total food consumption and body weight gained during the 3 day period were determined. The control group consisted of 16 rats, while the experimental group consists of 8 rats.

[4] = test system: isolated rat hepatocytes; assay: Fatty acid and cholesterol synthesis and CO2 production in isolated hepatocytes (Example 23); assay type: cell-based, Female Charles River rats; conditions: for activity at 2000 µM: Rattus norvegicus, Hepatocyte, 1 h, 2 mM, 60 min, 37° C.
Experimental: Female Charles River rats were fasted 48 hr, then meal-fed a 1% corn oil, 70% glucose diet for 7 to 14 days from 8 to 11 a.m. The isolated rat hepatocytes were prepared by perfusing the liver in situ. The hepatocytes were incubated in an oscillating water bath at 37° C. for 60 min. […] All incubations were done in triplicate and all experiments were repeated at least twice. […] The contents of the center well were transferred to scintillation counting fluid and ^14 CO2 content was determined. […] The media was then acidified, extracted with hexane, and the extract counted (to determine the rate of lipogenesis). The conversion of ^3 H2 O and [^14 C]alanine into fatty acids or sterols was determined in a PDS/3, Mark II liquid scintillation counting system.

[5] = Anorectic effect in 8 hour meal-fed Zucker rats (Example 17); assay type: in vivo, lean (Fa/-) and obese (fa/fa)
Experimental: Lean (Fa/-) Zucker rats and obese (fa/fa) Zucker rats of both sexes were individually housed in wire-bottomed cages in a temperature-regulated (22° C.) light-controlled room (12 hr light, 6 a.m. to 6 p.m. and 12 hr dark, 6 p.m. to 6 a.m.). The animals were fed a high carbohydrate (70% glucose) diet ad libitum for 13 days, dosed with the indicated compounds by oral intubation for 9 days and allowed to recover for 3 days. The animals were then meal fed from 8 a.m. to 4 p.m. for a period of 5 days, following which they were continued on the same meal schedule for an additional 6 days. During the 6-day period, the animals were administered the indicated compounds by oral intubation at 8 a.m. and 12 p.m. Food cups were weighed immediately after the meal.

[6] = Food intake in dogs, pyramiding oral doses (Examples 26 and 27); assay type: in vivo, beagle dogs
Experimental: Twelve beagle dogs of both sexes weighing 7.6-12.2 kg were used for this test. The test compounds were contained in gelatin capsules for oral administration to two dogs of each sex. The animals were weighed and food consumption calculated daily excluding weekends throughout the test period. Each animal received 800 grams of diet daily consisting of 400 grams of Wayne pellet dog food mixed with 400 ml distilled water. The animals received pyramiding oral doses of the test compound over the three week period. On Monday and Tuesday of the first week the animals were weighed and food consumption was recorded (control). […] Doses of 30, 100 and 300 mg/kg were administered on Monday, Wednesday and Friday respectively during the second week. A final dose of 1000 mg/kg was administered on Monday of the third week.
Food intake was determined by the procedure at pyramiding doses described in EXAMPLE 26.

[7] = Comparative anorectic activity, food consumption of meal-fed rats (Example 13); assay type: in vivo, Charles River female rats; conditions: 3 hr meal
Experimental: Charles River female rats (Charles River Breeding Laboratories, Wilmington, Mass.), weighing 150 to 175 g, were individually housed in wire-bottomed cages in a temperature-regulated (22° C.) light-controlled room (12 hr light, 6 a.m. to 6 p.m. and 12 hr dark, 6 p.m. to 6 a.m.). Animals were fasted 48 hr, then meal-fed the 70% glucose diet described by A. C. Sullivan, et al., J. Nutrition, 101, 265 (1971) from 8 to 11 a.m. Following 5 to 13 days alimentation on the meal-feeding regimen, rats were dosed with the appropriate compounds orally by intubation 1/2 hr before the 3 hr meal. Food cups were weighed immediately after the meal. The control group consists of 31 rats while each drug treated group consists of 5 to 12 rats.
The G-70 diet consisted of 70% glucose, 23% vitamin-free casein, 5% Phillips and Hart salt mixture IV, 1% corn oil, 1% complete vitamin mixture, and 40 g/kg cellulose. To ensure complete uniformity, all diets were mixed with a twen-shell dry blender equipped with an itensifier bar (Patterson-Kelley Co., East Stroudsburg, Pa.).

[8] = test day 8, dose 100 mg/kg oral
[9] = test day 10, dose 300 mg/kg oral
[10] = test day 13, dose 1000 mg/kg oral

O=C(O)C[C@@](O)(C(=O)O)[C@H](Cl)C(=O)O [(+)-erythro-Chlorocitric acid]
Food Consumption, % of control ([1]; 0.66 mmoles/kg oral): 99 % of control | Food Consumption, % of control ([1]; 2.63 mmoles/kg oral): 78 % of control | Serum, % of control [2]: 88 % of control | Stomach Contents, % of control [2]: 207 % of control | 3-Day Body Weight Gain, % of initial body weight [3]: -0.7 % of initial body weight | 3-Day Food Consumption, % of control [3]: 111 % of control

O=C(O)CC(O)(C(=O)O)C(O)C(=O)O (single isomer, unassigned) [hydroxycitric acid, reference compound]
inhibition of lipid (fatty acid) and cholesterol syntheses ([4]; in words): inhibition of fatty acid and cholesterol syntheses | gastric emptying ([2]; in words, comparable doses): delayed gastric emptying

O=C(O)CC(O)(CC(=O)O)C(=O)O [Citric Acid]
Daily Food Consumption ([5]; Fa/-- lean, 1.32 mmoles/kg group, pretreatment day 0): 11.0 ± 0.8 g | Daily Food Consumption ([5]; Fa/-- lean, 1.32 mmoles/kg oral, day 1): 10.6 ± 1.2 g | Daily Food Consumption ([5]; Fa/-- lean, 1.32 mmoles/kg oral, day 2): 10.0 ± 1.2 g | Daily Food Consumption ([5]; Fa/-- lean, 1.32 mmoles/kg oral, day 3): 12.7 ± 1.0 g | Daily Food Consumption ([5]; Fa/-- lean, 1.32 mmoles/kg oral, day 4): 11.9 ± 0.7 g | Daily Food Consumption ([5]; Fa/-- lean, 1.32 mmoles/kg oral, day 5): 12.6 g | Daily Food Consumption ([5]; Fa/-- lean, 1.32 mmoles/kg oral, day 6): 13.1 ± 0.9 g | Daily Food Consumption ([5]; fa/fa obese, 1.32 mmoles/kg group, pretreatment day 0): 13.4 ± 0.8 g | Daily Food Consumption ([5]; fa/fa obese, 1.32 mmoles/kg oral, day 1): 11.4 ± 0.8 g | Daily Food Consumption ([5]; fa/fa obese, 1.32 mmoles/kg oral, day 2): 13.8 ± 1.2 g | Daily Food Consumption ([5]; fa/fa obese, 1.32 mmoles/kg oral, day 3): 16.5 ± 1.0 g | Daily Food Consumption ([5]; fa/fa obese, 1.32 mmoles/kg oral, day 4): 14.8 ± 0.9 g | Daily Food Consumption ([5]; fa/fa obese, 1.32 mmoles/kg oral, day 6): 16.0 ± 1.0 g | Food Consumption, % of control ([1]; 2.63 mmoles/kg oral): 94 % of control

O=C(O)CC(O)(CC(=O)O)C(=O)O [Trisodium Citrate, reference compound]
Serum, % of control [2]: 112 % of control | Stomach Contents, % of control [2]: 133 % of control

O=C(O)C[C@](O)(C(=O)O)[C@@H](Cl)C(=O)O [(-)-erythro-Chlorocitric acid]
Food Consumption, % of control ([1]; 0.66 mmoles/kg oral): 85 % of control | Food Consumption, % of control ([1]; 2.63 mmoles/kg oral): 53 % of control | Serum, % of control [2]: 90 % of control | Stomach Contents, % of control [2]: 169 % of control | 3-Day Body Weight Gain, % of initial body weight [3]: -2.4 % of initial body weight | 3-Day Food Consumption, % of control [3]: 86 % of control

O=C(O)C[C@@](O)(C(=O)O)[C@@H](Cl)C(=O)O (relative stereo) [(±)-threo-Chlorocitric acid]
Food Consumption ([6]; test day 1, dose 3 mg/kg oral): 616 ± 79 g | Food Consumption, % of control ([6]; test day 1, dose 3 mg/kg oral): 129 % of control | Food Consumption ([6]; test day 2, no dose): 392 ± 140 g | Food Consumption, % of control ([6]; test day 2, no dose): 82 % of control | Food Consumption ([6]; test day 3, dose 10 mg/kg oral): 460 ± 136 g | Food Consumption, % of control ([6]; test day 3, dose 10 mg/kg oral): 96 % of control | Food Consumption ([6]; test day 6, dose 30 mg/kg oral): 511 ± 104 g | Food Consumption, % of control ([6]; test day 6, dose 30 mg/kg oral): 107 % of control | Food Consumption, % of control ([6]; test day 7, no dose): 100 % of control | Food Consumption [6, 8]: 299 ± 176 g | Food Consumption, % of control [6, 8]: 62 % of control | Food Consumption ([6]; test day 9, no dose): 492 ± 110 g | Food Consumption, % of control ([6]; test day 9, no dose): 103 % of control | Food Consumption [6, 9]: 316 ± 109 g | Food Consumption, % of control [6, 9]: 66 % of control | Food Consumption [6, 10]: 164 ± 61 g | Food Consumption, % of control [6, 10]: 34 % of control | Food Consumption ([6]; test day 14, no dose): 560 ± 136 g | Food Consumption, % of control ([6]; test day 14, no dose): 117 % of control | Food Consumption ([6]; test day 15, no dose): 543 ± 92 g | Food Consumption, % of control ([6]; test day 15, no dose): 113 % of control | Food Consumption ([6]; test day 16, no dose): 624 ± 88 g | Food Consumption, % of control ([6]; test day 16, no dose): 130 % of control | Food Consumption ([6]; test day 17, no dose): 645 ± 93 g | Food Consumption, % of control ([6]; test day 17, no dose): 135 % of control | Food Consumption ([6]; test day 21, no dose): 561 ± 83 g | Food Consumption, % of control ([6]; test day 21, no dose): 117 % of control | Food Consumption ([6]; test day 22, no dose): 649 ± 91 g | Food Consumption, % of control ([6]; test day 22, no dose): 135 % of control | Food Consumption ([6]; test day 23, no dose): 533 ± 118 g | Food Consumption, % of control ([6]; test day 23, no dose): 111 % of control | Food Consumption ([6]; test day 24, no dose): 477 ± 114 g | Food Consumption, % of control ([6]; test day 24, no dose): 100 % of control | Food Consumption ([6]; test day 27, no dose): 518 ± 139 g | Food Consumption, % of control ([6]; test day 27, no dose): 108 % of control | Food Consumption ([6]; test day 28, no dose): 663 ± 137 g | Food Consumption, % of control ([6]; test day 28, no dose): 138 % of control | Food Consumption, % of control ([7]; 0.08 mmoles/kg oral): 57 % of control | Food Consumption, % of control ([7]; 0.17 mmoles/kg oral): 61 % of control | Food Consumption, % of control ([7]; 0.33 mmoles/kg oral): 51 % of control | Food Consumption, % of control ([7]; 0.66 mmoles/kg oral): 35 % of control | Food Consumption, % of control ([7]; 1.32 mmoles/kg oral): 28 % of control | Food Consumption, % of control ([7]; 2.63 mmoles/kg oral): 34 % of control

O=C(O)C[C@@](O)(C(=O)O)[C@H](O)C(=O)O [Trisodium (-)-threo-hydroxycitrate, reference compound]
activity at 2000 µM ([4]; read-out: CO2 Production, [14C]alanine converted): 103% | activity at 2000 µM ([4]; read-out: Cholesterol Synthesis, 3H2O converted): 60% | activity at 2000 µM ([4]; read-out: Cholesterol Synthesis, [14C]alanine converted): 18% | activity at 2000 µM ([4]; read-out: Fatty Acid Synthesis, 3H2O converted): 54% | activity at 2000 µM ([4]; read-out: Fatty Acid Synthesis, [14C]alanine converted): 30% | Serum, % of control [2]: 79 % of control | Stomach Contents, % of control [2]: 223 % of control | Food Consumption, % of control ([7]; 0.33 mmoles/kg oral): 103 % of control | Food Consumption, % of control ([7]; 0.66 mmoles/kg oral): 80 % of control | Food Consumption, % of control ([7]; 1.32 mmoles/kg oral): 88 % of control | Food Consumption, % of control ([7]; 2.63 mmoles/kg oral): 79 % of control
